Laboratory results: ChEMBL document CHEMBL1921686, “Molecular design, synthesis and bioactivity of glycosyl hydrazine and hydrazone derivatives: notable effects of the sugar moiety” (2011)

Experiments:
Type in all cases: functional
Conditions in all cases: read-out: GI
Phytophthora capsici = test: Antifungal activity against Phytophthora capsici assessed as growth inhibition at 500 ug/mL by potted plant test
Bel-7402 = test: Antitumor activity against human Bel7402 cells assessed as growth inhibition at 10 uM by SRB method
BGC-823 = test: Antitumor activity against human BGC823 cells assessed as growth inhibition at 10 uM by SRB method
Rhizoctonia solani = test: Antifungal activity against Rhizoctonia solani assessed as growth inhibition at 500 ug/mL by potted plant test
Fusarium oxysporum = test: Antifungal activity against Fusarium oxysporum assessed as growth inhibition at 500 ug/mL by potted plant test
KB = test: Antitumor activity against human KB cells assessed as growth inhibition at 10 uM by SRB method
Corynespora cassiicola = test: Antifungal activity against Corynespora cassiicola assessed as growth inhibition at 500 ug/mL by potted plant test

Row | SMILES | inhibition of growth at 500 µg/mL (Phytophthora capsici) | inhibition of growth at 10 µM (Bel-7402) | inhibition of growth at 10 µM (BGC-823) | inhibition of growth at 500 µg/mL (Rhizoctonia solani) | inhibition of growth at 500 µg/mL (Fusarium oxysporum) | inhibition of growth at 10 µM (KB) | inhibition of growth at 500 µg/mL (Corynespora cassiicola)
1 | COc1ccccc1C(=O)N/N=C/c1ccc(-c2ccc(F)cc2F)o1 | 20.9% | 1.69% | 35.9% | 2% | 9% | 10.1% | 38.5%
2 | O=C(N/N=C/c1ccc(-c2ccc(F)cc2F)o1)c1ccccc1O | 52.8% | 63.4% | 68.4% | 16.1% | 8% | 61.8% | 27.7%
3 | O=C(N/N=C/c1ccc(-c2ccc(F)cc2F)o1)c1ccccc1S[C@@H]1O[C@H](CO)[C@@H](O)[C@H](O)[C@H]1O | 88.5% | -0.67% | 18.4% | 45.5% | 45.2% | -0.3% | 53.7%
4 | O=C(N/N=C/c1ccc(-c2ccc(F)cc2F)o1)c1ccccc1O[C@@H]1O[C@H](CO)[C@@H](O)[C@H](O)[C@H]1O | 85.5% | -5.7% | 6.66% | 45.3% | 0% | 18.2% | 50.8%
5 | O=C(N/N=C/c1ccc(-c2ccc(F)cc2F)o1)c1ccccc1S[C@@H]1O[C@H](CO)[C@H](O)[C@H](O)[C@H]1O | 88.4% | 27.2% | 16.1% | 24.9% | 64.5% | 10.7% | 39.4%
6 | O=C(N/N=C/c1ccc(-c2ccccc2Cl)o1)c1ccccc1S[C@@H]1O[C@H](CO)[C@@H](O)[C@H](O)[C@H]1O | 90% | 2.09% | 6.21% | 34.4% | 8.06% | 24.3% | 41.9%
7 | O=C(N/N=C/c1ccc(-c2ccccc2Cl)o1)c1ccccc1O[C@@H]1O[C@H](CO)[C@@H](O)[C@H](O)[C@H]1O | 90% | -10.3% | 1.88% | 33.3% | 64.5% | 9.11% | 49.3%
8 | O=C(N/N=C/c1ccc(-c2ccc(F)cc2F)o1)c1ccccc1S[C@@H]1O[C@H](CO)[C@@H](O[C@@H]2O[C@H](CO)[C@H](O)[C@H](O)[C@H]2O)[C@H](O)[C@H]1O | 30% | -10.6% | -2.72% | 10.7% | 74.2% | 39.4% | 45.6%
9 | O=C(N/N=C/c1ccc(-c2ccccc2Cl)o1)c1ccccc1S[C@@H]1O[C@H](CO)[C@@H](O[C@@H]2O[C@H](CO)[C@H](O)[C@H](O)[C@H]2O)[C@H](O)[C@H]1O | 44.4% | 8.3% | 1.91% | 43.5% | 40.3% | -4.67% | 41.6%
10 | N#Cc1c(Cl)c(Cl)c(Cl)c(C#N)c1Cl [CHLOROTHALONIL] | – | – | – | – | – | – | 83.9%
11 | COc1cccc2c1C(=O)c1c(O)c3c(c(O)c1C2=O)C[C@@](O)(C(=O)CO)C[C@@H]3O[C@H]1C[C@H](N)[C@H](O)[C@H](C)O1 [DOXORUBICIN] | – | 6.53% | 51.2% | – | – | 45.1% | –
12 | CC12CC1(C)C(=O)N(c1cc(Cl)cc(Cl)c1)C2=O (stereo not given) [PROCYMIDONE] | 93.2% | – | – | – | – | – | –
13 | COC(=O)NC(=S)Nc1ccccc1NC(=S)NC(=O)OC [THIOPHANATE METHYL] | – | – | – | – | 64.5% | – | –
14 | OCC1=C[C@H](N[C@H]2C[C@H](CO)[C@@H](O[C@@H]3O[C@H](CO)[C@@H](O)[C@H](O)[C@H]3O)[C@H](O)[C@H]2O)[C@H](O)[C@@H](O)[C@@H]1O [VALIDAMYCIN] | – | – | – | 81% | – | – | –
